Converted amounts (≈) assume the structure as drawn.
What was measured:
Type in all cases: functional
Pseudomonas aeruginosa [1] = assay: Antimicrobial susceptibility of carbapenem-resistant Pseudomonas aeruginosa PA4012 isolate expressing carbapenemase KPC2
Pseudomonas aeruginosa [2] = assay: Antimicrobial susceptibility of carbapenem-resistant Pseudomonas aeruginosa PA2404 isolate expressing carbapenemase KPC2
Citrobacter freundii = assay: Antimicrobial susceptibility of Citrobacter freundii CF6010 isolate expressing carbapenemase KPC2
Pseudomonas aeruginosa [3] = assay: Antimicrobial susceptibility of carbapenem-resistant Pseudomonas aeruginosa PA4036 isolate expressing carbapenemase KPC2

CC(O)[C@H]1C(=O)N2C(C(=O)O)=C(SCCNC=N)C[C@H]12 (single isomer, unassigned) [IMIPENEM ANHYDROUS]
MIC (Pseudomonas aeruginosa [1]): > 256 µg/mL
MIC (Pseudomonas aeruginosa [2]): 256 µg/mL (≈ 855 µM)
MIC (Citrobacter freundii): 8 µg/mL (≈ 26.7 µM)
MIC (Pseudomonas aeruginosa [3]): > 256 µg/mL

CO/N=C(\C(=O)N[C@@H]1C(=O)N2C(C(=O)O)=C(COC(C)=O)CS[C@H]12)c1csc(N)n1 (stereo in doubt) [CEFOTAXIME]
MIC (Pseudomonas aeruginosa [1]): > 256 µg/mL
MIC (Pseudomonas aeruginosa [2]): > 256 µg/mL
MIC (Citrobacter freundii): 32 µg/mL (≈ 70.3 µM)
MIC (Pseudomonas aeruginosa [3]): > 256 µg/mL

NCC[C@H](O)C(=O)N[C@@H]1C[C@H](N)[C@@H](O[C@H]2O[C@H](CN)[C@@H](O)[C@H](O)[C@H]2O)[C@H](O)[C@H]1O[C@H]1O[C@H](CO)[C@@H](O)[C@H](N)[C@H]1O [AMIKACIN]
MIC (Pseudomonas aeruginosa [1]): 16 µg/mL (≈ 27.3 µM)
MIC (Pseudomonas aeruginosa [2]): 16 µg/mL (≈ 27.3 µM)
MIC (Citrobacter freundii): 2 µg/mL (≈ 3.42 µM)
MIC (Pseudomonas aeruginosa [3]): 16 µg/mL (≈ 27.3 µM)

CC1(C)S[C@@H]2[C@H](NC(=O)[C@H](N)c3ccccc3)C(=O)N2[C@H]1C(=O)O [AMPICILLIN]
MIC (Pseudomonas aeruginosa [1]): > 256 µg/mL
MIC (Pseudomonas aeruginosa [2]): > 256 µg/mL
MIC (Citrobacter freundii): > 256 µg/mL
MIC (Pseudomonas aeruginosa [3]): > 256 µg/mL

C[C@H]1[C@H](NC(=O)/C(=N\OC(C)(C)C(=O)O)c2csc(N)n2)C(=O)N1S(=O)(=O)O [AZTREONAM]
MIC (Pseudomonas aeruginosa [1]): > 256 µg/mL
MIC (Pseudomonas aeruginosa [2]): > 256 µg/mL
MIC (Citrobacter freundii): 128 µg/mL (≈ 294 µM)
MIC (Pseudomonas aeruginosa [3]): > 256 µg/mL

CO/N=C(\C(=O)N[C@@H]1C(=O)N2C(C(=O)[O-])=C(C[N+]3(C)CCCC3)CS[C@H]12)c1csc(N)n1 [CEFEPIME]
MIC (Pseudomonas aeruginosa [1]): > 256 µg/mL
MIC (Pseudomonas aeruginosa [2]): > 256 µg/mL
MIC (Citrobacter freundii): 8 µg/mL (≈ 16.6 µM)
MIC (Pseudomonas aeruginosa [3]): > 256 µg/mL

CC(C)(O/N=C(\C(=O)N[C@@H]1C(=O)N2C(C(=O)[O-])=C(C[n+]3ccccc3)CS[C@H]12)c1csc(N)n1)C(=O)O [CEFTAZIDIME]
MIC (Pseudomonas aeruginosa [1]): 256 µg/mL (≈ 468 µM)
MIC (Pseudomonas aeruginosa [2]): 256 µg/mL (≈ 468 µM)
MIC (Citrobacter freundii): 32 µg/mL (≈ 58.5 µM)
MIC (Pseudomonas aeruginosa [3]): 256 µg/mL (≈ 468 µM)

CO/N=C(\C(=O)N[C@@H]1C(=O)N2C(C(=O)O)=C(CSc3nc(=O)c(O)nn3C)CS[C@H]12)c1csc(N)n1 [CEFTRIAXONE]
MIC (Pseudomonas aeruginosa [1]): > 256 µg/mL
MIC (Pseudomonas aeruginosa [2]): > 256 µg/mL
MIC (Citrobacter freundii): 256 µg/mL (≈ 462 µM)
MIC (Pseudomonas aeruginosa [3]): > 256 µg/mL

C[C@@H](O)[C@H]1C(=O)N2C(C(=O)O)=C(S[C@@H]3CN[C@H](C(=O)Nc4cccc(C(=O)O)c4)C3)[C@H](C)[C@H]12 [ERTAPENEM]
MIC (Pseudomonas aeruginosa [1]): 256 µg/mL (≈ 538 µM)
MIC (Pseudomonas aeruginosa [2]): > 256 µg/mL
MIC (Citrobacter freundii): 16 µg/mL (≈ 33.6 µM)
MIC (Pseudomonas aeruginosa [3]): > 256 µg/mL

C[C@@H](O)[C@H]1C(=O)N2C(C(=O)O)=C(S[C@@H]3CN[C@H](C(=O)N(C)C)C3)[C@H](C)[C@H]12 [MEROPENEM]
MIC (Pseudomonas aeruginosa [1]): > 256 µg/mL
MIC (Pseudomonas aeruginosa [2]): > 256 µg/mL
MIC (Citrobacter freundii): 8 µg/mL (≈ 20.9 µM)
MIC (Pseudomonas aeruginosa [3]): > 256 µg/mL

CCN1CCN(C(=O)N[C@@H](C(=O)N[C@@H]2C(=O)N3[C@@H]2SC(C)(C)[C@@H]3C(=O)O)c2ccccc2)C(=O)C1=O [PIPERACILLIN]
MIC (Pseudomonas aeruginosa [1]): > 256 µg/mL
MIC (Pseudomonas aeruginosa [2]): > 256 µg/mL
MIC (Citrobacter freundii): > 256 µg/mL
MIC (Pseudomonas aeruginosa [3]): > 256 µg/mL

CN(C)c1cc(NC(=O)CNC(C)(C)C)c(O)c2c1C[C@H]1C[C@H]3[C@H](N(C)C)C(O)=C(C(N)=O)C(=O)[C@@]3(O)C(O)=C1C2=O [TIGECYCLINE]
MIC (Pseudomonas aeruginosa [1]): 16 µg/mL (≈ 27.3 µM)
MIC (Pseudomonas aeruginosa [2]): 16 µg/mL (≈ 27.3 µM)
MIC (Citrobacter freundii): 0.5 µg/mL (≈ 0.854 µM)
MIC (Pseudomonas aeruginosa [3]): 16 µg/mL (≈ 27.3 µM)

NC[C@H]1O[C@H](O[C@H]2[C@H](O)[C@@H](O[C@H]3O[C@H](CO)[C@@H](O)[C@H](N)[C@H]3O)[C@H](N)C[C@@H]2N)[C@H](N)C[C@@H]1O [TOBRAMYCIN]
MIC (Pseudomonas aeruginosa [1]): > 128 µg/mL
MIC (Pseudomonas aeruginosa [2]): > 128 µg/mL
MIC (Citrobacter freundii): 64 µg/mL (≈ 137 µM)
MIC (Pseudomonas aeruginosa [3]): > 128 µg/mL

COLISTIN
MIC (Pseudomonas aeruginosa [1]): 2 µg/mL
MIC (Pseudomonas aeruginosa [2]): 1 µg/mL
MIC (Citrobacter freundii): 0.5 µg/mL
MIC (Pseudomonas aeruginosa [3]): 1 µg/mL

GENTAMICIN
MIC (Pseudomonas aeruginosa [1]): > 128 µg/mL
MIC (Pseudomonas aeruginosa [2]): > 128 µg/mL
MIC (Citrobacter freundii): > 128 µg/mL
MIC (Pseudomonas aeruginosa [3]): > 128 µg/mL

Reference: ChEMBL document CHEMBL1147103, “First identification of Pseudomonas aeruginosa isolates producing a KPC-type carbapenem-hydrolyzing beta-lactamase” (2007)
